Measurements reported in patent US20130005698A1, “PHARMACEUTICAL FOR PREVENTING OR TREATING AN INNER EAR DISORDER” (University of Tsukuba, priority 2010, published 2013).

Tests used:
[1] = test system: high-level noise exposure mice; experiment: Evaluation of inner ear disorders in high-level noise exposure mice models (ABR threshold, cochlear hair cell loss); format: in vivo, B6 mice; conditions: for effect on increase of the auditory brainstem response (ABR) threshold caused by exposure to high-level noise: one week and two weeks after exposure
Method: The test was carried out using high-level noise exposure mice. […] The auditory brainstem response (ABR) threshold was measured immediately before the exposure to high-level noise (initial value). At 1 week and 2 weeks after the exposure for 4 hours, the ABR was measured. For the prevention test, after measuring the ABR threshold at 2 weeks after, the inner ears were excised and fixed so as to allow pathological assessment of the loss of two types of hair cells, or inner and outer hair cells within the cochlea. The pathological assessment of the hair cell loss was carried out on the inner hair cells (one line of inner hair cells is represented by IHC) and outer hair cells (three lines of outer hair cells are represented by OHC 1, 2, and 3 from the inside to outside). The verification was carried out by analysis of variance (Fisher's test as post-hoc test). The mice were divided into two groups: a group exposed to high-level noise (control group, n=10), and a group exposed to high-level noise and administrated with fidarestat at a dose of 32 mg/kg/day (fidarestat-administrated group, n=10). The ABR and pathological assessment were carried out in 10 and 5 mice of each group, respectively. Fidarestat was administered mixed with the feed during the period from two days before to two weeks after the exposure to high-level noise. The mice were divided into five groups: a group exposed to high-level noise (control group, n=6), two group exposed to high-level noise and administrated with fidarestat at doses of 8 mg/kg/day or 32 mg/kg/day (fidarestat-administrated groups, n=6), a group exposed to high-level noise, and administrated with prednisolone at a dose of 1 mg/kg/day (prednisolone-administrated group, n=6), and a group exposed to high-level noise, and administrated of combination with prednisolone at a dose of 1 mg/kg/day and fidarestat at a dose of 32 mg/kg/day (combination use group, n=6). The ABR was carried out in 6 mice of each group. Fidarestat was administered mixed with the feed during the period immediately after to two weeks after the exposure to high-level noise. Prednisolone was orally administered immediately after the exposure to high-level noise.

[2] = test system: outer hair cells of the organ of Corti; experiment: Gentamicin-induced loss of outer hair cells model (cultured organ of Corti); format: cell-based, SD rats; conditions: 48 hours culture; for loss rate of gentamicin-induced outer hair cells loss: control 50%
Method: After excision of the cochlea from SD rats of 3-5 days old, lateral walls were removed, and then the basal turn of the organ of Corti was extracted. The organ of Corti was incubated overnight, and then cultured in culture solutions containing gentamicin ([…]) and fidarestat at different concentrations (0, 0.05, 0.1, 0.2, 0.5, 1, and 2 μM) for 48 hours. After culturing, the organ of corti was fixed with 4% paraformaldehyde. The culture solution was a Dulbecco's modified eagles medium (DMEM solution) containing 10% fetal bovine serum, HEPES ([…]), and penicillin G ([…]), and the organ was cultured at 37° C., 5% CO2, at a humidity of 95%.

`NC(=O)[C@@H]1C[C@]2(NC(=O)NC2=O)c2cc(F)ccc2O1` [fidarestat, (2S,4S)-6-fluoro-2′,5′-dioxospiro[chroman-4,4′-imidazolidine]-2-carboxamide] was tested, and the “therapeutic effect on ABR threshold increase compared to prednisolone-administrated group” value ([1]; fidarestat 32 mg/kg/day vs prednisolone 1 mg/kg/day) was “equivalent effect”, the “effect on increase of the loss rate of cochlear outer hair cells” value ([1]; prophylactic 32 mg/kg/day, two weeks after exposure to high-level noise) was “significantly inhibited” and the “effect on increase of the auditory brainstem response (ABR) threshold caused by exposure to high-level noise” value ([1]; prophylactic administration, 32 mg/kg/day mixed with feed from two days before to two weeks after exposure) was “significantly inhibited”. The “effect on increase of the auditory brainstem response (ABR) threshold caused by exposure to high-level noise” value ([1]; therapeutic administration, mixed with feed from immediately after to two weeks after exposure) was “significantly inhibited”, the “loss rate of gentamicin-induced outer hair cells loss” value ([2]; fidarestat 0.1 μM) was “significantly reduced” and the “outer hair cells survival” value ([2]; fidarestat 0.5 μM or more) was 75%. The “loss rate of gentamicin-induced outer hair cells loss” value ([2]; fidarestat 0.5 μM or more) was 25%.
